Measurements reported in PMC7692187, “Rapid In Vivo Validation of HDAC Inhibitor-Based Treatments in Neuroblastoma Zebrafish Xenografts” (Pharmaceuticals, 2020).

Assays:
zebrafish larvae = assay: Toxicity test: three-day treatment of fish larvae without injection of tumor cells; assay type: in vivo, zebrafish (Danio rerio); settings: three-day incubation time at 34 °C, drug in buffer
Protocol: (§1) For treatment, larvae were incubated in freshly prepared buffer solution supplemented with 0.2 mM PTU, containing the drug of interest at increasing concentrations. Drug-containing solutions were administered at the beginning of the experiment and were not replaced during the incubation period. Solvent control was applied in the same manner as the drug treatments.

xenografted tumor cells = assay: Dose response in zebrafish xenografts: relative IC50 from the change in tumor volume; assay type: in vivo, human; settings: Danio rerio, compared to solvent, drug applied to surrounding water, n = 3–5 fish per concentration
Protocol: (§2) To determine optimal drug concentrations, larvae bearing xenografted tumor cells were incubated with increasing drug concentrations 24 h post implantation (hpi), ranging from the concentrations used in previous cell culture experiments to the MTD(larvae) (Figure 2a). […] Using these concentrations, we evaluated whether HDACis were able to reach their specific enzymatic targets.
(§3) Right: representative images of immunohistochemical staining (c) Left: quantification of staining for acetylated histone H3. Right: representative images of immunohistochemical staining.
as §1

cleaved caspase-3 = assay: IHC staining for cleaved caspase-3 in SK-N-BE(2)-C zebrafish xenografts; assay type: in vivo, human; settings: 48 h exposure, compared to solvent-treated control
Protocol: (§4) Due to this relatively short treatment duration (48 h), the apoptosis induction of the combination therapy is predominant over the antiproliferative effect.
(§5) Left panel: representative images of sections stained against cleaved caspase-3. […] The number of positive cells was calculated as the ratio of positive to total cells counted, relative to solvent. […] (b) Left panel: representative images of sections stained against phospho-histone H3, a marker specific for cells undergoing mitosis. […] The number of positive cells (%) was calculated as the ratio of positive to total cells counted.
(§6) Following fixation (24 h at 4 °C) in Special Fixative for Anatomy and Histology (Morphisto, Frankfurt am Main, Germany), xenografted zebrafish larvae were transferred to embedding cassettes equipped with biopsy pads, dehydrated, and infiltrated with paraffin. […] FIJI software and a macro program were employed for quantitative analysis of the xenograft slides, while the analysis of slides obtained from neuroblastoma patients was carried out manually. All quantitative analyses were performed in a blinded fashion on the xenograft slides (five tissue sections per zebrafish larva), which were obtained from at least two xenotransplantation replicates.

phospho-histone H3 = assay: IHC staining for phospho-histone H3 (pHH3) in SK-N-BE(2)-C zebrafish xenografts; assay type: in vivo, human; settings: 48 h exposure; solvent-treated 47%
Protocol: as §4, §5, §6

[1] = tested on: acetylated α-tubulin (substrate of HDAC6); assay: IHC staining for acetylated α-tubulin in SK-N-BE(2)-C zebrafish xenografts; assay type: in vivo, human; settings: 50 µM, 48 h, SK-N-BE(2)-C xenografts, versus solvent
Protocol: as §2, §3
(§7) Following fixation (24 h at 4 °C) in Special Fixative for Anatomy and Histology (Morphisto, Frankfurt am Main, Germany), xenografted zebrafish larvae were transferred to embedding cassettes equipped with biopsy pads, dehydrated, and infiltrated with paraffin. Briefly, fixed larvae were dehydrated using Leica ASP300S tissue processor (Leica Biosystems, Wetzlar, Germany) through incubation in aqueous solutions of increasing ethanol concentration (1 h in 50% ethanol, 2 h in 70% ethanol, 2 h in 80% ethanol, 1 h in 96% ethanol, 3 h in absolute ethanol) and thereafter incubated with xylene for 5 h. Next, samples were transferred to liquid paraffin at 60 °C and allowed to infiltrate for 5 h.

[2] = tested on: acetylated histone H3 (substrate of HDAC1–3); assay: IHC staining for acetylated histone H3 in SK-N-BE(2)-C zebrafish xenografts; assay type: in vivo, human; settings: 48 h exposure at IC50 concentrations (tubastatin A 50 µM), SK-N-BE(2)-C xenografts
Protocol: as §2, §3, §7

SK-N-BE(2)-C cells = assay: Doxorubicin accumulation in engrafted tumor cells and zebrafish tissues; assay type: in vivo, human; settings: tubastatin A 50 µM with doxorubicin 110 ng/mL, 48 h, relative to doxorubicin alone
Protocol: Doxorubicin has an intrinsic fluorescence due to the presence of a hydroxy-substituted anthraquinone chromophore.
(b,c) Representative images (b) and quantification (c) of zebrafish larvae engrafted with Hoechst stained and doxorubicin-treated SK-N-BE(2)-C cells. Larvae, except of unstained larvae, were exposed for 48 h to doxorubicin (red fluorescence) and tubastatin A or solvent. Red fluorescence of doxorubicin was visualized by confocal microscopy and normalized to tumor area. Results are presented as log2 fold change (FC) relative to doxorubicin alone. […] One-way ANOVA with Tukey’s multiple comparison test, scale bar = 50 µm.
SK-N-BE(2)-C cells were incubated with Hoechst nucleic acid dye (Thermo Fisher Scientific) at a concentration of 10 µg/mL for 30 min at 37 °C. […]
Zebrafish larvae engrafted with Hoechst-stained SK-N-BE(2)-C cells were exposed to solvent, doxorubicin, or doxorubicin combined with tubastatin A for 48 h. Red fluorescence of doxorubicin was visualized by confocal microscopy. Doxorubicin has an intrinsic fluorescence due to the presence of a hydroxy-substituted anthraquinone chromophore, with typical excitation and emission maxima in the range of 500 nm and 552–585 nm, respectively. Total fluorescence intensity in the tumor area (determined by nuclear staining) was defined as that above the threshold set by the solvent group and was quantified using a macro program.

| SMILES | Maximum Tolerated Dose (MTD) (zebrafish larvae) | IC50 (xenografted tumor cells; 48 h treatment) [mg/L] | number of cells positive for cleaved caspase-3 (cleaved caspase-3) | average number of tumor cells per slide positive for pHH3 (phospho-histone H3) [%] | IC50 (xenografted tumor cells; 48 h treatment from 24 hpi) [µM] | increase of acetylated α-tubulin [1] [fold] | cells stained positive for ac-histone H3 [2] | doxorubicin accumulation in zebrafish tissues and engrafted tumor cells (SK-N-BE(2)-C cells) |
| --- | --- | --- | --- | --- | --- | --- | --- | --- |
| COc1cccc2c1C(=O)c1c(O)c3c(c(O)c1C2=O)C[C@@](O)(C(=O)CO)C[C@@H]3O[C@H]1C[C@H](N)[C@H](O)[C@H](C)O1 [doxorubicin] | 500 ng/mL | 0.11 | increased | 38 | – | – | – | – |
| Cc1[nH]c2ccccc2c1CCNCc1ccc(/C=C/C(=O)NO)cc1 [panobinostat] | 1 µM | – | – | – | 0.2 | – | – | – |
| CN1CCc2c(c3ccccc3n2Cc2ccc(C(=O)NO)cc2)C1 [tubastatin A] | 200 µM | – | – | – | 50 | 5 | not acetylated H3 | increased |
| O=C(CCCCCCC(=O)Nc1ccccc1)NO [vorinostat] | 100 µM | – | increased | 30 | – | – | – | – |
